According to patent US12157741B2, “Macrocyclic inhibitors of DYRK1A” (DANA-FARBER CANCER INSTITUTE, INC., priority 2018, dated 2024):
Like-named read-outs stand apart in the source and are kept apart here.

Key:
[1] = biological target: various enzymes (Homo sapiens, UniProt O60674); settings: JAK2(JH1domain-catalytic); 1 uM
Protocol: (§1) Ambit profiling from Eurofins (formerly Discoverx) was conducted in accordance with the manufacturer's instructions.

[2] = biological target: various enzymes (Homo sapiens, UniProt P45984); settings: JNK2; 1 uM
Protocol: as §1

[3] = biological target: various enzymes (Homo sapiens, UniProt O15075); settings: DCAMKL1; 1 uM
Chain of various enzymes (Homo sapiens, UniProt O15075) (O15075 whole entry): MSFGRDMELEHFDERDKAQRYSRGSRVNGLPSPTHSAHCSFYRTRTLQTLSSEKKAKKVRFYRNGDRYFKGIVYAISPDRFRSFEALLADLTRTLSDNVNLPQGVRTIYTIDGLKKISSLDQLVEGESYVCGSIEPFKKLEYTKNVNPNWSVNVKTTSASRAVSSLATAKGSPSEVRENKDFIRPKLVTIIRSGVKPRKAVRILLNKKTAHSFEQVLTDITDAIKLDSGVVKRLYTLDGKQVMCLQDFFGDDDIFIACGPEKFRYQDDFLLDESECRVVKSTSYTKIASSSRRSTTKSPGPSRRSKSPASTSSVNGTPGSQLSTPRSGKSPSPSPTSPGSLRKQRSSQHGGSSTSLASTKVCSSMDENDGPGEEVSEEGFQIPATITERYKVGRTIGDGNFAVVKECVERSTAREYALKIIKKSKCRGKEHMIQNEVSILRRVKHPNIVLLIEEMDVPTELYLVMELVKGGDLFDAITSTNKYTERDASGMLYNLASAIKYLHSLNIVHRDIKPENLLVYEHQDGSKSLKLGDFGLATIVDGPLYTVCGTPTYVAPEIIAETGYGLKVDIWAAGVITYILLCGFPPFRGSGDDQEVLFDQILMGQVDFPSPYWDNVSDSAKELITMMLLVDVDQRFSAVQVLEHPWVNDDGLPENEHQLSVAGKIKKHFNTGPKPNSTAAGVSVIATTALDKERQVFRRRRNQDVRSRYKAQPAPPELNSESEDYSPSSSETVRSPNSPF
Protocol: as §1

[4] = biological target: various enzymes (Homo sapiens, UniProt O94921); settings: PFTK1; 1 uM
Chain of various enzymes (Homo sapiens, UniProt O94921) (O94921 whole entry): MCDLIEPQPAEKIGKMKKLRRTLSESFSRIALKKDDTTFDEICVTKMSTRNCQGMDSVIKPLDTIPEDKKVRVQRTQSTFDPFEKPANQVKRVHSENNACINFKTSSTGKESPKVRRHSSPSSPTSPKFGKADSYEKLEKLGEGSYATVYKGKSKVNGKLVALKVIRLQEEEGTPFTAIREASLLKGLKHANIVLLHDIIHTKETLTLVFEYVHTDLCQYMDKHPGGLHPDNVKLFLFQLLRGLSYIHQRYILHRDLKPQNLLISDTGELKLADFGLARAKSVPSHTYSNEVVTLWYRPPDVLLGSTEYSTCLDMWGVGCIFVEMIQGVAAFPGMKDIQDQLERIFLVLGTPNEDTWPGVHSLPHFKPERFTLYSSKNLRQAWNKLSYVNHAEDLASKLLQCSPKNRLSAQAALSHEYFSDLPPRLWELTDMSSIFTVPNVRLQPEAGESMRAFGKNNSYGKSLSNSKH
Protocol: as §1

[5] = biological target: various enzymes (Homo sapiens, UniProt P43405); settings: SYK; 1 uM
Protocol: as §1

[6] = biological target: T1, various enzymes (Homo sapiens, UniProt Q9H093); settings: SNARK; 1 uM
T1 sequence (Q9H093 1-628): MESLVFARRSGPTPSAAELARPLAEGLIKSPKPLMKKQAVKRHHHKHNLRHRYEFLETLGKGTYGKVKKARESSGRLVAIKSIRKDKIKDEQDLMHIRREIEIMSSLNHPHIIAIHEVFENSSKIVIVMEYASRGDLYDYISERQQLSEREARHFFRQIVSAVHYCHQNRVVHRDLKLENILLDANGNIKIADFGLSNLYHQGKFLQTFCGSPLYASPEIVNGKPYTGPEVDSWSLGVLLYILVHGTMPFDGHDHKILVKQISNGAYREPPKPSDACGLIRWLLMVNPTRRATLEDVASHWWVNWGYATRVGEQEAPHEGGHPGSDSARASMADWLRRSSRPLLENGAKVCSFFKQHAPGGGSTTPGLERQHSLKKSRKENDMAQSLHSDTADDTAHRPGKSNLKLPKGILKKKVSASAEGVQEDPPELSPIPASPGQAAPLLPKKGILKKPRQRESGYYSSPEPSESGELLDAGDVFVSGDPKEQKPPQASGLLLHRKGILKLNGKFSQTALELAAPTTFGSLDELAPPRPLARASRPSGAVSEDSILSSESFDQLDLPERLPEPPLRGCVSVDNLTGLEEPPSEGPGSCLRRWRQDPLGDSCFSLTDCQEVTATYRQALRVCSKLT
Protocol: as §1

[7] = biological target: various enzymes (Homo sapiens, UniProt P00533, G719S)
Protocol: as §1

[8] = biological target: various enzymes (Homo sapiens, UniProt Q9Y6E0); settings: MST3; 1 uM
Chain of various enzymes (Homo sapiens, UniProt Q9Y6E0) (Q9Y6E0 whole entry): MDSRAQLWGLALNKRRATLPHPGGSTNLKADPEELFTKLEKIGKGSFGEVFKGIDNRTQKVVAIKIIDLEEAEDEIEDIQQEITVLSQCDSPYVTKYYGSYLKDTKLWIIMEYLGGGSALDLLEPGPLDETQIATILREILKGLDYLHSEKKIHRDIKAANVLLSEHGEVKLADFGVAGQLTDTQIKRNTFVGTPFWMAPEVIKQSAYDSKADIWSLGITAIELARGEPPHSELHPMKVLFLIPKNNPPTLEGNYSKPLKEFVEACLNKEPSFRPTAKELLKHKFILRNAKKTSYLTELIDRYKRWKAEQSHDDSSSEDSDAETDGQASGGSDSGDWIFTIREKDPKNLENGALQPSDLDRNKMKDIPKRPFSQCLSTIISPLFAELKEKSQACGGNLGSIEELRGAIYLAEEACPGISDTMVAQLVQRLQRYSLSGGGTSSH
Protocol: as §1

[9] = biological target: various enzymes (Homo sapiens, UniProt Q9H4A3); settings: WNK1; 1 uM
Protocol: as §1

[10] = biological target: various enzymes (Homo sapiens, UniProt Q9HCP0); settings: CSNK1G1; 1 uM
Chain of various enzymes (Homo sapiens, UniProt Q9HCP0) (Q9HCP0 whole entry): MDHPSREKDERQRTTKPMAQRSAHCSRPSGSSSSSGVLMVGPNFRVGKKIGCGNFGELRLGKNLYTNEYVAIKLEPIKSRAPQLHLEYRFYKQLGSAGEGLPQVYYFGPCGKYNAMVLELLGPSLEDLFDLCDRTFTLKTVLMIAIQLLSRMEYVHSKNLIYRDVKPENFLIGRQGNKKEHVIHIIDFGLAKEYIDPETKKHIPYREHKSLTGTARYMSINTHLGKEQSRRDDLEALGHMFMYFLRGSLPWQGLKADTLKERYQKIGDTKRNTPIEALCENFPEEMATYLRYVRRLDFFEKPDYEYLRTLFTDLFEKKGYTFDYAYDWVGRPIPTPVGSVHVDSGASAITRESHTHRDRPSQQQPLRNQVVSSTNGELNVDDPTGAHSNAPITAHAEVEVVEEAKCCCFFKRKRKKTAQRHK
Protocol: as §1

[11] = biological target: T2, various enzymes (Homo sapiens, UniProt O43283); settings: LZK; 1 uM
T2 sequence (O43283 1-966): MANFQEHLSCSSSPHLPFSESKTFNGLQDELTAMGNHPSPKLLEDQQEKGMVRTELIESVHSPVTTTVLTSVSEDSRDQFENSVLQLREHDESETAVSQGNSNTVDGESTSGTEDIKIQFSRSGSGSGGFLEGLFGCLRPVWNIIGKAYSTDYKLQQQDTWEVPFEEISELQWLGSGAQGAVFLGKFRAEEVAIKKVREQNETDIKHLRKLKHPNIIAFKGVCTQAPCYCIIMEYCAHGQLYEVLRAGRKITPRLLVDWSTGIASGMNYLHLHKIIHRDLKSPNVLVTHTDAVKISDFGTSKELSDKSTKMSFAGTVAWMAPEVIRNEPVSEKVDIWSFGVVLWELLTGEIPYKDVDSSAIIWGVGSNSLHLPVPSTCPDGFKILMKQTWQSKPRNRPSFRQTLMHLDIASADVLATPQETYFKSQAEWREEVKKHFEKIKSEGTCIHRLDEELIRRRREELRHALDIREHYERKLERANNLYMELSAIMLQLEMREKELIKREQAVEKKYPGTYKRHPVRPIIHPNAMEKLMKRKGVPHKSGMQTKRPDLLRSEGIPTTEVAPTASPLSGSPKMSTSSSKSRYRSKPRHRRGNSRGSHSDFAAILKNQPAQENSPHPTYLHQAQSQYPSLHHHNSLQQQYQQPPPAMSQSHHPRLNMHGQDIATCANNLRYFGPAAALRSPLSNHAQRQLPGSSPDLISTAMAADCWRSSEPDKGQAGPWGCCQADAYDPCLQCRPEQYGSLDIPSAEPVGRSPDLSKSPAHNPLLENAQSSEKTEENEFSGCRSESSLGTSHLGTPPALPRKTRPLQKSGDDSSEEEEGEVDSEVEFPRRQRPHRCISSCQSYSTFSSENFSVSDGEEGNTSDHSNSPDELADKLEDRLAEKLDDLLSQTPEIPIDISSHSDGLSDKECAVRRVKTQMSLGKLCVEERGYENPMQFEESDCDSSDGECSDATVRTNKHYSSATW
Protocol: as §1

[12] = biological target: various enzymes (Homo sapiens, UniProt P08581, M1250T)
Protocol: as §1

[13] = biological target: various enzymes (Homo sapiens, UniProt P00533, DEL752-759); settings: EGFR(S752-I759del); 1 uM
Protocol: as §1

[14] = biological target: various enzymes (Homo sapiens, UniProt P45983); settings: JNK1; 1 uM
Chain of various enzymes (Homo sapiens, UniProt P45983) (P45983 whole entry): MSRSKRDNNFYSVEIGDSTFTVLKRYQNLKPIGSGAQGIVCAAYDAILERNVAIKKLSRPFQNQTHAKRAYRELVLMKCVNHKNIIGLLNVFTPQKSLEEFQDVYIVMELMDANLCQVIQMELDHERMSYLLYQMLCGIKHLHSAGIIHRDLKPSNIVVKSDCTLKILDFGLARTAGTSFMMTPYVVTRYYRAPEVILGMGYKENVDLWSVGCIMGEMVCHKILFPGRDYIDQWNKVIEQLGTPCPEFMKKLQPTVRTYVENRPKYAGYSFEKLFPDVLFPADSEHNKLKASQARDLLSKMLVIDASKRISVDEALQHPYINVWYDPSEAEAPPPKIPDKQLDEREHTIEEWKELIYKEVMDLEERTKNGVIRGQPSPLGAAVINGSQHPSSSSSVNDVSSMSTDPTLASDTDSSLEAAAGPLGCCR
Protocol: as §1

Chain of various enzymes (Homo sapiens, UniProt O60674) (O60674 whole entry): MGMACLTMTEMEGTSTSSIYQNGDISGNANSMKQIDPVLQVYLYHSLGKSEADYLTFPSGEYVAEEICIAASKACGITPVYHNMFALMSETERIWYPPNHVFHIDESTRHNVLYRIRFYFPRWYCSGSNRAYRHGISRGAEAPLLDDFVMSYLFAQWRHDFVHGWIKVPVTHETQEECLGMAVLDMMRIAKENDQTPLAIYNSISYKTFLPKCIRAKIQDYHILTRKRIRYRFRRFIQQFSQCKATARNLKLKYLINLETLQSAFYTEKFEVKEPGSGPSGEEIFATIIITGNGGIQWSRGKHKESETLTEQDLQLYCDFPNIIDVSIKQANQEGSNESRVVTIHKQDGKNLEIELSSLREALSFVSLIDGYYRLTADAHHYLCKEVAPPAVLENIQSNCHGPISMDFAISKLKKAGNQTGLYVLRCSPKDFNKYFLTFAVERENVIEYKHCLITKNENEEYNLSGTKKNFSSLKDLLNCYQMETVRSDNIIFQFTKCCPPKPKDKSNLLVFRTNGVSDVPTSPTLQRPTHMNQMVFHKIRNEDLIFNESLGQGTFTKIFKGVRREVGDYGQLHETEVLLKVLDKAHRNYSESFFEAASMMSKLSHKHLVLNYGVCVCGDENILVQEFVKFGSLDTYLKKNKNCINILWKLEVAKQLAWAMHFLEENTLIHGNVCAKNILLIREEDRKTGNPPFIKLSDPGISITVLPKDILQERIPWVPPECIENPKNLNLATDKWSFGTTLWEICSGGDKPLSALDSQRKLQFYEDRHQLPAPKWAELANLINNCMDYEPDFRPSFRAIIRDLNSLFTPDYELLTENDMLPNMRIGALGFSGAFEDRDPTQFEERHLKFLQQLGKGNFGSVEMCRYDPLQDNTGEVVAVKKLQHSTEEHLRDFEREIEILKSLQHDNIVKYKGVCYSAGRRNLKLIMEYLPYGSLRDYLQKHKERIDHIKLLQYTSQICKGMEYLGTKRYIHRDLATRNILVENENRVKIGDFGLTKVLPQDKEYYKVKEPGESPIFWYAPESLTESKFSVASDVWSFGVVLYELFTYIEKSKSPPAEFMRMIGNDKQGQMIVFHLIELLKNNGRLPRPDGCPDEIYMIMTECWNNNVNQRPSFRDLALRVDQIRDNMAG
Chain of various enzymes (Homo sapiens, UniProt P45984) (P45984 whole entry): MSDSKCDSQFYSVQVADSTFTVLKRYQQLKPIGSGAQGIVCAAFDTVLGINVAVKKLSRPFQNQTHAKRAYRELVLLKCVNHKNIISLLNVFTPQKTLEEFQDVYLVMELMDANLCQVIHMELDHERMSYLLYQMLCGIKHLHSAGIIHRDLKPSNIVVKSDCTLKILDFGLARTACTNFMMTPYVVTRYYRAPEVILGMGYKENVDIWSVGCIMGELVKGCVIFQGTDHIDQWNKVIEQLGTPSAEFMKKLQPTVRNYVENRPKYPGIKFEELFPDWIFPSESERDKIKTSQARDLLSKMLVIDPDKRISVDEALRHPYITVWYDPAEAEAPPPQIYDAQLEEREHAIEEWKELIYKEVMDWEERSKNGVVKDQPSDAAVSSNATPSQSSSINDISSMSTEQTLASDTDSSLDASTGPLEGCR

Compound: CN1Cc2nn(C)cc2-c2cnc3[nH]cc(c3c2)-c2cnn(c2)CCCC1=O [Compound 41, (Z)-31,5-dimethyl-11H,21H,31H-5-aza-2(3,5)-pyrrolo[2,3-b]pyridina-1(4,1),3(4,3)-dipyrazolacyclononaphan-6-one]
- Ambit profiling [1]: 0.5
- Ambit profiling [2]: 1.1
- Ambit profiling [3]: 65
- Ambit profiling [4]: 69
- Ambit profiling [5]: 70
- Ambit profiling [6]: 4.3
- Ambit profiling ([7]; EGFR(G719S), 1 uM): 100
- Ambit profiling [8]: 39
- Ambit profiling [9]: 95
- Ambit profiling [10]: 84
- Ambit profiling [11]: 11
- Ambit profiling ([12]; MET(M1250T), 1 uM): 20
- Ambit profiling [13]: 100
- Ambit profiling [14]: 0.1

Compound: CN1Cc2nn(C)c(C#N)c2-c2cnc3[nH]cc(c3c2)-c2cn(nc2C(F)(F)F)CCCC1=O [Compound 48, (Z)-31,5-dimethyl-6-oxo-13-(trifluoromethyl)-11H,21H,31H-5-aza-2(3,5)-pyrrolo[2,3-b]pyridina-1(4,1),3(4,3)-dipyrazolacyclononaphane-35-carbonitrile]
- Ambit profiling [1]: 81
- Ambit profiling [2]: 8.1
- Ambit profiling [3]: 92
- Ambit profiling [4]: 91
- Ambit profiling [5]: 68
- Ambit profiling [6]: 100
- Ambit profiling [7]: 71
- Ambit profiling [8]: 86
- Ambit profiling [9]: 100
- Ambit profiling [10]: 100
- Ambit profiling [11]: 100
- Ambit profiling [12]: 75
- Ambit profiling [13]: 77
- Ambit profiling [14]: 20
